US11866516B2, “Isolated peptide, anti-cancer medicinal composition including the same and method of specifically reducing or inhibiting activities of cancer cells using the same” (National Sun Yat-Sen Univesity, priority 2020, dated 2024)
No end group written: not given here.

Columns and labels:
[1] = target: T1, recombinant ATG4A (Homo sapiens, UniProt Q8WYN0); experiment: ATG4 reporter GBRL2-PLA2 assay with recombinant ATG4A; type: biochemical; details: for inhibitory effect on ATG4A proteolytic activity: recombinant ATG4A 5 nM, 100 nM GBRL2-PLA2, EDTA as positive control
T1 sequence (Q8WYN0 1-398): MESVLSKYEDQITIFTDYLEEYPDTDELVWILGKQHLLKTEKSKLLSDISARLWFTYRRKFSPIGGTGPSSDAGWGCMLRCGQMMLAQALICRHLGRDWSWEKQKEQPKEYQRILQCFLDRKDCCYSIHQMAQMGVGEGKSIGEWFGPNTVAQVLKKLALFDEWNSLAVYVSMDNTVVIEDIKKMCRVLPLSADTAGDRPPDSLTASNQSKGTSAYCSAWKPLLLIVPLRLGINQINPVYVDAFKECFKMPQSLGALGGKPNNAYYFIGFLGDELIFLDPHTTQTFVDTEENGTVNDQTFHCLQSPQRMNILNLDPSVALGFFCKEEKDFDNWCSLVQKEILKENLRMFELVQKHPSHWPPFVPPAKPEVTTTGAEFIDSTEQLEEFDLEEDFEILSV
Method: (§1) FIGS. 2A to 2C illustrate the inhibitory effects of GBRL2-derived peptides on ATG4 proteolytic activity according to several embodiments of the present invention. FIGS. 2A and 2B illustrate three α-helical peptides (H1, H2 and H3) derived from GBRL2, which were 2-fold serial titrated and mixed with recombinant ATG4A (5 nM) (FIG. 2A) or recombinant ATG4B (0.1 nM) (FIG. 2B) in the presence of 100 nM reporter GBRL2-PLA2, a general substrate for ATG4 members, to evaluate the inhibitory effect of peptides on ATG4A and ATG4B. The IC50 of peptides on ATG4B and ATG4A was analyzed by Prism 5.0. FIG. 2C illustrates the inhibitory activity of EDTA on proteolysis of ATG4 as a positive control in the upper panel. In the lower panel of FIG. 2C, the H2 peptide was further counter assayed with 0.5 nM caspase-3 and 100 μM DEVD-AFC to validate its specificity.
(§2) The reporter assay was modified from a previous report. Briefly, recombinant ATG4A or ATG4B was mixed with 100 nM GBRL2-PLA2 fusion protein in 20 μL PLA2 reaction buffer containing 20 mM Tris-HCl, pH 8.0, 2 mM CaCl2) and 1 mM DTT, and 20 μM 2-(6-(7-nitrobenz-2-oxa-1,3-diazol-4-yl)amino)hexanoyl-1-hexadecanoyl-sn-glycero-3-phosphocholine (NBD-C6-HPC) (Invitrogen, N-3786). Fluorescence intensity was measured within 30-60 minutes using Fluoroskan Ascent FL Reader (Thermo Fisher Scientific) at room temperature with excitation and emission wavelength of 485 nm and 530 nm, respectively. The IC50 of peptides on GBRL2-PLA2 was determined using nonlinear regression fitting of a series of progress curves.

[2] = target: T2, ATG4B (Homo sapiens, UniProt Q9Y4P1); experiment: ATG4 reporter GBRL2-PLA2 assay with recombinant ATG4B; type: biochemical; details: for inhibitory effect on ATG4B proteolytic activity: recombinant ATG4B 0.1 nM, 100 nM GBRL2-PLA2, EDTA as positive control
T2 sequence (Q9Y4P1 1-393): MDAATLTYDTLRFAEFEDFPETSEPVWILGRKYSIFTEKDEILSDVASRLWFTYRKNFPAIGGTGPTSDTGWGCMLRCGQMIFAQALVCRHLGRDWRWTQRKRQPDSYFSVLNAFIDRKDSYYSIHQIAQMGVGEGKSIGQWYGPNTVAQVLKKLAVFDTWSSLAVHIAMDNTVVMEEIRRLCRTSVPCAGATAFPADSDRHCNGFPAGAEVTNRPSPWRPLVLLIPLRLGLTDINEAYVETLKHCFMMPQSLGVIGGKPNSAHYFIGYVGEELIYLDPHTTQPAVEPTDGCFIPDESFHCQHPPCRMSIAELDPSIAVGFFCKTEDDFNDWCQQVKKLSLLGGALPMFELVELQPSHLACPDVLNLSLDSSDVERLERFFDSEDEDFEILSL
Method: as §1, §2

[3] = tested on: H4 cells; experiment: cell viability, H4 cells; type: cell-based, human; details: data not shown
Method: (§3) Since ATG4 might be required for cancer cell viability and metastatic characteristics, such as migration and invasion, the H4 cells and HCT116 cells were treated with peptides to determine the short- and long-term effects of peptide on cancer cells (FIGS. 4A to 4B).

[4] = tested on: HCT116 cells; experiment: propidium iodide (PI) uptake, HCT116 cells; type: cell-based, human; details: data not shown
Method: as §3

[5] = tested on: human glioblastoma H4 cells; experiment: cell migration assay, H4 cells; type: cell-based; details: TAT-GBRL2 at higher dose (20 μM), data not shown
Method: (§4) Besides the role of ATG4 in cancer cell survival, ATG4 plays a crucial role in cancer metastasis. Human glioblastoma H4 cells and colorectal cancer HCT116 cells were treated with the peptides for the cell migration assay.

[6] = tested on: cellular ATG4; experiment: ATG4 cleavable luciferase assay in cells; type: cell-based, human; details: HCT116 cells expressing ATG4 cleavable luciferase, 6 hours, ATG4B silencer as positive control
From the text: (§5) FIGS. 3A to 3C illustrate the effects of peptides on cellular ATG4 proteolysis and autophagic flux according to several embodiments of the present invention. FIG. 3A depicts H2 peptides derived from different ATG4 substrates, including MAP1LC3B, MAP1LC3C and GBR, GBRL2 were mixed with chimeric GBRL2 containing N-terminal C-myc tag and C-terminal S-tag. The S-tag GBRL2 in the upper panel and ratios of non-cleaved/cleaved Myc-tag GBRL2 in the lower panel are used to evaluate the inhibitory effects of the H2 peptides. FIG. 3B depicts human glioblastoma H4 cells and colorectal cancer HCT116 cells both treated with 10 μM GBRL2 H2 peptide alone (orange) or TAT peptide alone (red) or GBRL2 H2 peptide conjugated with TAT peptide (green) for 6 hours and analyzed with flow cytometer. FIG. 3C depicts the HCT116 cells expressing ATG4 cleavable luciferase treated with GBRL2 H2 peptide for 6 hours. The luciferase activity is measured to determine the inhibitory effects on cellular ATG4 proteolysis.
The plasmid MAP1LC3 wt-Luc or MAP1LC3 G120A-Luc (as a normalization control) was transfected into HEK293T (2000 cells/40 μL) seeded in 384-well white plates for overnight. The cells were treated with ATG4 inhibitors for 8 hours or 16 hours, followed by adding 200 μM D-luciferin (Promega) into each well to monitor the luciferase activity to reflect ATG4 activity in cells. […]

[7] = tested on: HCT116 cells; experiment: invasion through Matrigel-coated Transwell filters; type: cell-based, human
From the text: FIGS. 5A to 5B illustrate the effects of GBRL2 peptides on cancer cell migration and invasion according to several embodiments of the present invention. FIG. 5A depicts the invasion of HCT116 cells examined with Matrigel-coated Transwell filters in the presence or absence of peptides, and the cell invasion results are quantified with ImageJ software. FIG. 5B depicts the quantified results for invasion expressed as the mean±SEM. *p<0.05; **p<0.01.
as §4

[8] = tested on: HCT116 cells; experiment: clonogenic assay, HCT116 cells; type: cell-based, human; details: peptide 5 μM, long-term treatment
Method: (§6) FIGS. 4A and 4B depict the cytotoxic effects of peptide (5 μM) in H4 cells (FIG. 4A) and HCT116 cells (FIG. 4B) further confirmed by clonogenic assay according to several embodiments of the present invention.
as §3

[9] = target: T3, caspase-3 (Homo sapiens, UniProt P42574); experiment: caspase-3 counter assay with DEVD-AFC; type: biochemical; details: 0.5 nM caspase-3, 100 μM DEVD-AFC
T3 sequence (P42574 29-175 limits assumed): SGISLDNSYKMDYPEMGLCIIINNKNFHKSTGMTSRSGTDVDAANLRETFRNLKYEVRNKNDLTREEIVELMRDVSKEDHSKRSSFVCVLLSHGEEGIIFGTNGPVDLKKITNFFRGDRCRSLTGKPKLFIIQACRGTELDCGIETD
T3 sequence (P42574 176-277 limits assumed): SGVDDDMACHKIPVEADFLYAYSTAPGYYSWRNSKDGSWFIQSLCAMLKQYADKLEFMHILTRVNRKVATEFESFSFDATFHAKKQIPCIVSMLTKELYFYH
Method: as §1

[10] = tested on: HCT116 cells; experiment: cell viability, HCT116 cells; type: cell-based, human; details: data not shown
Method: as §3

[11] = tested on: colorectal cancer HCT116 cells; experiment: cell migration assay, HCT116 cells; type: cell-based, human; details: TAT-GBRL2 at higher dose (20 μM), data not shown
Method: as §4

[12] = target: T2, ATG4B; experiment: ATG4B cleavage of chimeric GBRL2 substrate (N-terminal C-myc tag, C-terminal S-tag); type: biochemical
From the text: as §5, with “FIG. 3C depicts the HCT116 cells expressing ATG4 cleavable luciferase treated with GBRL2 H2 peptide for 6 hours.” left out
Further, H2 helical peptides from different ATG4 substrates were tested for ATG4B activity with GABARAL2 chimeric substrates, which contained N-terminal C-myc tag and C-terminal S-tag (FIG. 3A). Compared to the controls, the remaining S-tag and the ratio of full length C-myc tagged GBRL2/cleaved C-myc tagged GBRL2 levels were quantified to determine the inhibitory effects of peptides on ATG4B proteolytic activity toward GBRL2. […]

[13] = tested on: H4 cells; experiment: propidium iodide (PI) uptake, H4 cells; type: cell-based, human; details: data not shown
Method: as §3

[14] = tested on: H4 cells; experiment: clonogenic assay, H4 cells; type: cell-based, human; details: peptide 5 μM, long-term treatment
Method: as §6, §3

## H3: α-helical peptide derived from GBRL2, MGQLYEKE, SEQ ID NO:12 (Ac-MGQLYEKE-NH2)
[1]
  inhibitory effect on ATG4A proteolytic activity: showed inhibitory effects
[2]
  inhibitory effect on ATG4B proteolytic activity: showed inhibitory effects

## H1: α-helical peptide derived from GBRL2, LEHRCVESAKIRAK, SEQ ID NO:11 (Ac-LEHRCVESAKIRAK-NH2)
[1]
  inhibitory effect on ATG4A proteolytic activity: showed inhibitory effects
[2]
  inhibitory effect on ATG4B proteolytic activity: showed inhibitory effects

## α-helix 2 peptide derived from GBRL2 (GABARAPL2), VAQFMWIIRKR, SEQ ID NO:1 (VAQFMWIIRKR-NH2; not fully specified (N-terminus))
[3]
  cell viability: no or little effects
[4]
  PI positive proportion: slightly increased PI positive cells
[5]
  cell migration: not altered
[6]
  cellular luciferase activity (cellular ATG4 proteolysis): elevated cellular luciferase activity
[7]
  invaded HCT116 cells: significantly decreased the invaded HCT116 cells
[8]
  colony formation: reduced colony formation
[9]
  effect on activity of caspase-3: no effects
[1]; GBRL2-PLA2 reporter assay
  IC50 on ATG4A, rank among H1, H2, H3: lowest IC50
[1]
  inhibitory effect on ATG4A proteolytic activity: showed inhibitory effects
[10]
  cell viability: no or little effects
[11]
  cell migration: not altered
[12]; compared with H2 peptides of other ATG4 substrates
  relative strength of inhibition on ATG4B among H2 peptides: strongest inhibition
[12]; remaining S-tag and ratio full length/cleaved C-myc tagged GBRL2
  inhibition of ATG4B cleavage activity toward GBRL2: inhibited ATG4B cleavage activity in dose dependent manner
[13]
  PI positive proportion: slightly increased PI positive cells
[2]; GBRL2-PLA2 reporter assay
  IC50 on ATG4B, rank among H1, H2, H3: lowest IC50
[2]
  inhibitory effect on ATG4B proteolytic activity: showed inhibitory effects
[14]
  colony formation: reduced colony formation

## TAT: Tat penetration domain, HIV-1 TAT basic domain, YGRKKRRQRRR, SEQ ID NO:2; control peptide (Ac-YGRKKRRQRRR-NH2) [reference compound]
[3]
  cell viability: no or little effects
[4]
  PI positive proportion: no effects on PI uptake
[5]
  cell migration: not altered
[10]
  cell viability: no or little effects
[11]
  cell migration: not altered
[13]
  PI positive proportion: no effects on PI uptake
